Experimental data as given in US20260306434A1, “VERY LONG CHAIN FATTY ACIDS FOR USE IN MINERALIZATION” (Epax Norway AS, priority 2023, published 2026).

Assays:
[1] = tested on: primary Atlantic salmon keratocytes; experiment: Cell migration of primary Atlantic salmon keratocytes from scales (Ex. 2); format: cell-based; conditions: 25 ng/mL; 24 h; vs control (P=0.0145)
Method: In these cell culture experiments fatty acids were added to growth media in the form of their sodium salts bound to bovine serum albumin (BSA; 2.7:1 molar ratio). The pH was adjusted to 7 using NH4OH. DHA was purchased from Sigma (Sigma Aldrich, Darmstadt, Germany). The n-3 VLCPUFA 26:6 n-3 and VLC-Conc2 (Table 1.1) were both prepared as 1-mM stock solutions and DHA was prepared as an 8-mM stock solution. All fatty acid solutions were stored at −80° C.
Growth medium (GM) was prepared as L-15 (11544436, Fischer Scientific) supplemented with 5% FBS (F2442, Sigma-Aldrich), 1% anti/anti (A5955, Sigma-Aldrich; 15240062 Fischer Scientific), and 1% HEPES (H0887, Sigma-Aldrich). The test substrates added were either 25 ng/mL fibroblast growth factor (FGF) (106096-93-9, Sigma-Aldrich), 10 μM VLCPUFA (26:6 n-3), or 20 μM VLCPUFA (26:6 n-3). Controls were left untreated. […]
The day after isolation, all wells were inspected under a microscope to determine the migration potential of the scales. All scales with migration were counted to determine the immediate effect of the VLCPUFA on cell migration. […] The number of scales with cell migration was counted and divided by the number of attached scales to calculate the percentage of scales with cell migration, as attachment is a prerequisite for cell migration. […]
For histology, five fish from each tank, giving a total of 15 fish per treatment, were analysed. […]

[2] = tested on: hFOB 1.19 human foetal osteoblasts; experiment: Fatty acid composition of hFOB cells (Ex. 4); format: cell-based; conditions: 2 μM; 7 days
Method: Total lipids were extracted from homogenised tissue or sonicated extracts of cells (for Ex. 4) following the method previously described by Folch et al., For both skin tissue and whole-body analyses, pooled samples from each tank (n=10 per tank, n=30 per diet group) were analysed for lipid composition. For cells, three individual cell culture flasks per treatment group were analysed. The fatty acid composition was analysed using the method described by Mason and Waller.
Methyl esters were separated and analysed in a GC (Hewlett Packard 6890; HP) with a split injector using an SGE BPX70 capillary column (length, 60 m; internal diameter, 0.25 mm; and film thickness, 0.25 um; SGE Analytical Science) flame ionsation detector, and HP chem Station software. Helium was used as the carrier gas, and both the injector and detector temperatures were 280° C. The oven temperature started at 50° C. for 1.2 min and then increased […] to 170° C. at a rate of 4° C./min, followed by 200° C. at a rate of 0.5° C./min, and finally 280° C. at a rate of 10° C./min. The individual fatty acid peaks were identified by comparing the retention times with validated standards; GLC reference 463 and 85 (Nu-chek Prep, Elysian, MN). The absolute amount of fatty acid per gram of tissue or cells was calculated using 23:0 methyl ester as an internal standard (IS). Unidentified peaks were not included in the total fatty acid calculation.
The VLC-PUFA composition of cells and whole-body extracts was analysed using a Scion TQ 8300 GC-MS/MS with a split/splitless injector (splitless 1 min) with a Restek Rxi-5 ms capillary column (length, 30 m; internal diameter, 0.25 mm; and film thickness, […]). Hydrogen was used as the carrier gas, with split-injection and detector temperatures of 250° C. and 270° C., respectively. The oven temperature started at 90° C. for 1.5 min and was ramped up to 220° C. at a rate of 30° C./min, then 275° C. at a rate of 1.21° C./min, and finally 310° C. at a rate of 6.5° C./min. The instrument was run in MRM mode with 79.1-77.1 and 79-55.1 as transitions for VLC PUFAs and 143.1-55.1 for C23:0. The response factor for DHA (relative to C23:0) was calculated using standard solutions of known concentrations of DHA and C23:0. As no standards for VLC fatty acids were available for the VLC-PUFAs, the same response factor as for DHA was assumed and used to calculate concentrations of VLC-PUFAs.
A human foetal osteoblast cell line (hFOB 1.19, ATCC, CRL-11372) was used in the experiments. Cells were cultured according to the manufacturer's instructions. Basal medium comprised a 1:1 mixture of Ham's F12 Medium Dulbecco's Modified Eagle's Medium with 2.5 mM L-glutamine (without phenol red) (Sigma-Aldrich, Darmstadt, Germany). Complete growth medium was prepared using 0.3 mg/mL G418 (Sigma-Aldrich, Darmstadt, Germany) supplemented with 10% foetal bovine serum (T7524, Sigma-Aldrich, Darmstadt, Germany). Cells were incubated at 34° C., with 5% C02 (In-Vitro Cell NU-8600E, NUAIRE, Minnesota, U.S.) and sub-cultured at approximately 80% confluency at a ratio of 1:4. Growth medium was renewed every 2-3 days. Cells cultured for differentiation were supplemented with osteogenic factors, ascorbic acid (100 μg/mL; A8960, Sigma-Aldrich, Darmstadt, Germany) and β-glycerophosphate (10 mM; G9422, Sigma-Aldrich, Darmstadt, Germany). Once the cells reached confluency, the temperature was increased to 37° C. to stop proliferation and induce differentiation. The osteogenic media was renewed every 2-3 days.
Fatty acids were added to the growth media in the form of their sodium salts bound to bovine serum albumin (BSA, Sigma-Aldrich, Darmstadt, Germany; 2.7:1 molar ratio). The pH was adjusted to 7 using NH4OH. n-3 VLC-PUFA (the VLC-PUFA concentrate of Table 3.1, right column) and DHA (Sigma-Aldrich, Darmstadt, Germany) concentrates were prepared as 1 and 8 mM stocks, respectively, and were added to the media at concentrations of 1 and 2 μM. […]

fibroblast growth factor [FGF]
scales with cell migration [1]: significant difference

CC/C=C\C/C=C\C/C=C\C/C=C\C/C=C\C/C=C\CCC(=O)O [DHA, docosahexaenoic acid]
14:0, mean [2]: 38.3 μg/g sample | 16:0, mean [2]: 648.5 μg/g sample | 16:2 n-6, mean [2]: 52.5 μg/g sample | 17:0, mean [2]: 12.5 μg/g sample | 18:0, mean [2]: 315.8 μg/g sample | 18:1 n-7, mean [2]: 135.0 μg/g sample | 18:1 n-9, mean [2]: 554.6 μg/g sample | 18:2 n-6, mean [2]: 40.6 μg/g sample | 18:3 n-6, mean [2]: 11.5 μg/g sample | 20:0, mean [2]: 10.1 μg/g sample | 20:1 n-9, mean [2]: 16.2 μg/g sample | 20:1 n-11, mean [2]: 7.1 μg/g sample | 20:2 n-6, mean [2]: 18.8 μg/g sample | 20:3 n-6, mean [2]: 20.6 μg/g sample | 20:4 n-3, mean [2]: 8.8 μg/g sample | 20:4 n-6, mean [2]: 106.7 μg/g sample | 20:5 n-3, mean [2]: 19.3ab μg/g sample | 22:0, mean [2]: 7.3 μg/g sample | 22:4 n-6, mean [2]: 13.7 μg/g sample | 22:5 n-3, mean [2]: 26.2 μg/g sample | 24:1 n-9, mean [2]: 3.9 μg/g sample | 24:5 n-3, mean [2]: 76.5 μg/g sample | 24:6 n-3, mean [2]: 56.5 μg/g sample | 26:5 n-3, mean [2]: 1.7ab μg/g sample | 26:6 n-3, mean [2]: 3.3ab μg/g sample | 28:8 n-3, mean [2]: 0.0a μg/g sample | SUM EPA/DHA, mean [2]: 115.6b μg/g sample | SUM FA, mean [2]: 2670.3 μg/g sample | Sum of MUFAs, mean [2]: 871.5 μg/g sample | Sum of SFAs, mean [2]: 1045.0 μg/g sample | Sum of n-3 PUFAs, mean [2]: 164.0ab μg/g sample | Sum of n-6 PUFAs, mean [2]: 226.2 μg/g sample | Sum others, mean [2]: 168.3 μg/g sample
